Measured values reported in PMC10108266, “Pharmacokinetic characteristics of golidocitinib, a highly selective JAK1 inhibitor, in healthy adult participants” (Frontiers in Immunology, 2023).
Where two headings read alike, the source gives them in different places.

Columns and labels:
[1] = Safety (TEAEs), JACKPOT2 MAD cohorts; assay type: in vivo, human; conditions: n = 6
Text: Safety assessments included monitoring of adverse events/serious adverse events, clinical safety laboratory tests (clinical chemistry, hematology, coagulation, and urinalysis tests), 12-lead ECG, vital signs (blood pressure, pulse rate, and respiratory rate), and pulmonary function. All adverse events were coded using the Medical Dictionary for Regulatory Activities (MedDRA), version 22.0. The CTCAE 5.0 was used to define the intensity of AEs.

[2] = Pooled JACKPOT2/JACKPOT3 SAD analysis of the effect of race on PK; assay type: in vivo, human; conditions: for Dose normalized AUC0-inf, GLS Mean / Dose normalized AUC0-t, GLS Mean / Dose normalized Cmax, GLS Mean: ANCOVA; for Vd/F / half-life: human, plasma, oral
Description: Assessment of inter-ethnic difference of golidocitinib PK: The primary analyses of AUC0–t, AUC0–inf, and Cmax (log-transformed dose-normalized PK parameters) were performed using an analysis of covariance (ANCOVA) model, with the ethnic group as a fixed effect and dose (log scale) as a covariate. The analysis of variance (ANOVA) model was built for the secondary PK endpoints (log-transformed CL/F, Vz/F, and t1/2) with the ethnic group as a fixed effect. The Black/Caucasian and Asian/Caucasian ratios of the geometric mean were calculated by taking the antilogarithm of the difference between group means and corresponding 90% confidence intervals (CIs) in the log scale. Other analyses are descriptive, and no formal statistical comparison is performed for pooled JACKPOT2 and JACKPOT3 data. As the study design of SAD cohorts in JACKPOT2 and JACKPOT3 studies was similar, pooled analysis was performed. The race factor is the focus potentially used for the exposure comparison. A total of 62 participants were included in the analysis (11 Caucasians, 19 Blacks and 32 Asians).

## COc1nn(C)cc1Nc1nccc(-c2c[nH]c3c(NC(=O)[C@@H](C)N4CCN(C)CC4)cccc23)n1 [golidocitinib, (2R)-N-[3-[2-[(3-Methoxy-1-methyl-pyrazol-4-yl)amino]pyrimidin-4-yl]-1H-indol-7-yl]-2-(4-methylpiperazin-1-yl)propenamide]
[1]; 25 mg once daily 14 days
  Abdominal pain upper: 0 n (%)
  Blood and Lymphatic Disorders: 1 (16.7%) n (%)
  Constipation: 1 (16.7%) n (%)
  Dry throat: 0 n (%)
  Gastrointestinal disorders: 1 (16.7%) n (%)
  Headache: 0 n (%)
  Injury, poisoning and procedural complications: 0 n (%)
  Leukopenia: 0 n (%)
  Nausea: 0 n (%)
  Nervous System Disorders: 0 n (%)
  Neutropenia: 1 (16.7%) n (%)
  Respiratory, Thoracic and Mediastinal Disorders: 0 n (%)
  Reticulocytopenia: 0 n (%)
  Skin Laceration: 0 n (%)
  Subjects with at least one TEAE: 2 (33.3%) n (%)
[1]; 50 mg once daily 14 days
  Abdominal pain upper: 1 (16.7%) n (%)
  Blood and Lymphatic Disorders: 0 n (%)
  Constipation: 1 (16.7%) n (%)
  Dry throat: 0 n (%)
  Gastrointestinal disorders: 1 (16.7%) n (%)
  Headache: 1 (16.7%) n (%)
  Injury, poisoning and procedural complications: 0 n (%)
  Leukopenia: 0 n (%)
  Nausea: 1 (16.7%) n (%)
  Nervous System Disorders: 1 (16.7%) n (%)
  Neutropenia: 0 n (%)
  Respiratory, Thoracic and Mediastinal Disorders: 0 n (%)
  Reticulocytopenia: 0 n (%)
  Skin Laceration: 0 n (%)
  Subjects with at least one TEAE: 1 (16.7%) n (%)
[1]; 100 mg once daily 14 days
  Abdominal pain upper: 0 n (%)
  Blood and Lymphatic Disorders: 3 (50.0%) n (%)
  Constipation: 0 n (%)
  Dry throat: 0 n (%)
  Gastrointestinal disorders: 0 n (%)
  Headache: 1 (16.7%) n (%)
  Injury, poisoning and procedural complications: 0 n (%)
  Leukopenia: 2 (33.3%) n (%)
  Nausea: 0 n (%)
  Nervous System Disorders: 1 (16.7%) n (%)
  Neutropenia: 3 (50.0%) n (%)
  Respiratory, Thoracic and Mediastinal Disorders: 0 n (%)
  Reticulocytopenia: 1 (16.7%) n (%)
  Skin Laceration: 0 n (%)
  Subjects with at least one TEAE: 3 (50.0%) n (%)
[2]; Asian, n 24, single dose
  CL/F, Geometric Mean (CV%): 20.07 (21.59) L/hr
  Dose normalized AUC0-inf, Geometric Mean (CV%): 49.82 (21.63) hr*ng/mL/mg
  Dose normalized AUC0-t, Geometric Mean (CV%): 48.15 (23.34) hr*ng/mL/mg
  Dose normalized Cmax, Geometric Mean (CV%): 1.70 (24.14) ng/mL/mg
[2]; Asian, single dose
  Dose normalized AUC0-inf, GLS Mean: 49.76 ng·h/mL/mg
  Dose normalized AUC0-t, GLS Mean: 47.50 ng·h/mL/mg
  Dose normalized Cmax, GLS Mean: 1.66 ng/mL/mg
[2]; Asian, single dose, ANOVA
  CL/F, GLS Mean: 20.07 L/h
[2]; Asian/Caucasian
  CL/F, Ratio of GLS means: 0.88
  Dose normalized AUC0-inf, Ratio of GLS means: 1.2
  Dose normalized AUC0-t, Ratio of GLS means: 1.1
  Dose normalized Cmax, Ratio of GLS means: 1.4
  Vz/F, Ratio of GLS means: 0.76
  t1/2, Ratio of GLS means: 0.87
[2]; Black, n 10 (5 mg group not included), single dose
  Dose normalized AUC0-inf, Geometric Mean (CV%): 51.54 (22.55) hr*ng/mL/mg
[2]; Black, n 10, single dose
  CL/F, Geometric Mean (CV%): 19.40 (22.55) L/hr
[2]; Black, n 13, single dose
  Dose normalized AUC0-t, Geometric Mean (CV%): 46.51 (23.98) hr*ng/mL/mg
  Dose normalized Cmax, Geometric Mean (CV%): 1.12 (26.07) ng/mL/mg
[2]; Black, single dose
  Dose normalized AUC0-inf, GLS Mean: 52.05 ng·h/mL/mg
  Dose normalized AUC0-t, GLS Mean: 47.72 ng·h/mL/mg
  Dose normalized Cmax, GLS Mean: 1.19 ng/mL/mg
[2]; Black, single dose, ANOVA
  CL/F, GLS Mean: 19.40 L/h
[2]; Black/Caucasian
  CL/F, Ratio of GLS means: 0.85
  Dose normalized AUC0-inf, Ratio of GLS means: 1.2
  Dose normalized AUC0-t, Ratio of GLS means: 1.1
  Dose normalized Cmax, Ratio of GLS means: 1.0
  Vz/F, Ratio of GLS means: 1.1
  t1/2, Ratio of GLS means: 1.3
[2]; Caucasian, n 6 (5 mg group not included), single dose
  Dose normalized AUC0-inf, Geometric Mean (CV%): 43.62 (23.48) hr*ng/mL/mg
[2]; Caucasian, n 6, single dose
  CL/F, Geometric Mean (CV%): 22.92 (23.48) L/hr
[2]; Caucasian, n 7, single dose
  Dose normalized AUC0-t, Geometric Mean (CV%): 42.59 (28.57) hr*ng/mL/mg
  Dose normalized Cmax, Geometric Mean (CV%): 1.17 (30.17) ng/mL/mg
[2]; Caucasian, single dose
  Dose normalized AUC0-inf, GLS Mean: 43.13 ng·h/mL/mg
  Dose normalized AUC0-t, GLS Mean: 42.52 ng·h/mL/mg
  Dose normalized Cmax, GLS Mean: 1.16 ng/mL/mg
[2]; Caucasian, single dose, ANOVA
  CL/F, GLS Mean: 22.92 L/h
[2]; Asian, n 24, single dose, read-out: Vz/F, Geometric Mean (CV%)
  Vd/F: 1020 L
[2]; Asian, n 24, single dose, read-out: t1/2, Geometric Mean (CV%) (converted)
  half-life: 35.4 h
[2]; Asian, single dose, ANOVA, read-out: Vz/F, GLS Mean
  Vd/F: 1020 L
[2]; Asian, single dose, ANOVA, read-out: t1/2, GLS Mean (converted)
  half-life: 35.4 h
[2]; Black, n 10, single dose, read-out: Vz/F, Geometric Mean (CV%)
  Vd/F: 1420 L
[2]; Black, n 10, single dose, read-out: t1/2, Geometric Mean (CV%) (converted)
  half-life: 50.9 h
[2]; Black, single dose, ANOVA, read-out: Vz/F, GLS Mean
  Vd/F: 1420 L
[2]; Black, single dose, ANOVA, read-out: t1/2, GLS Mean (converted)
  half-life: 50.9 h
[2]; Caucasian, n 6, single dose, read-out: Vz/F, Geometric Mean (CV%)
  Vd/F: 1350 L
[2]; Caucasian, n 6, single dose, read-out: t1/2, Geometric Mean (CV%) (converted)
  half-life: 40.8 h
[2]; Caucasian, single dose, ANOVA, read-out: Vz/F, GLS Mean
  Vd/F: 1350 L
[2]; Caucasian, single dose, ANOVA, read-out: t1/2, GLS Mean (converted)
  half-life: 40.8 h
